Molecules are shown by their SMILES.

The test system of one assay is Pf Dd2-B2 ABS parasites. As to the kind of experiment: 72-h asexual blood stage (ABS) growth inhibition assay, Dd2-B2. The settings on record: Dd2-B2 wild-type, 72 h; read-out: Mean IC50, 72 h ABS activity. The class given is cell-based, Plasmodium falciparum. The method, then: (§1) Synchronicity was achieved using three rounds of sorbitol treatment on early rings, spaced 48 h apart, followed by magnetic purification of segmented schizonts following the final sorbitol treatment. Parasites were highly synchronous to within a 3 h window of development. Assays were repeated on at least three independent occasions (each with technical duplicates) and statistical significance was assessed using Mann Whitney U tests.

The subject of the next assay is sel. Dd2-B2 TKL3T1268R. As to the kind of experiment: 72-h ABS assay, MMV030084-selected line. The class given is cell-based, Plasmodium falciparum. The method, then:
as §1
The resulting MMV030084-resistant parasites were cloned by limiting dilution ([Baker et al., 2017]) to obtain genetically homogenous cultures for further phenotyping and whole-genome sequencing. A second round of […]. […] Drug susceptibility of resistant lines was assessed using a 72 h ABS assay as described above, and a Mann Whitney U test was applied to assess statistically significant differences.

A further assay concerns B-raf kinase. The settings on record: ref Gamo et al., 2010; cited from earlier work.

For orientation: IC50 means the point on the concentration scale where inhibition reaches its midpoint. As to `CC(C)(CN)c1cc(-c2ccc(Cl)c(O)c2)c(-c2ccncc2)o1.Cl` [TCMDC-141334], the IC50 in the assay on Pf Dd2-B2 ABS parasites is 277 nM; in the assay with sel. Dd2-B2 TKL3T1268R it was 599 nM. In addition, in the assay on B-raf kinase, the “Reported kinase inhibitor activity” value is listed as “B-raf kinase inhibitor”.
